Test system: Hs578T complex spheroid growth, percent test/control
Test: Anticancer human tumor Hs578T cell line growth inhibition [AhR];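 note: luminescent viability signal as a proxy for spheroid growth; spheroids exposed to agents for one week after three days of growth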
Details: for IC50: curve of first compound; for viability, T/C: stronger effect = lower value
Procedure, shortened: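 Complex tumor spheroids co-cultured with HUVEC and human MSC stroma; AhR antagonists tested in combination with standard-of-care and investigational agents. Top concentration at or near clinical Cmax (else 10 microM), half-log dilutions; growth expressed as percent test/control.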

[1] = second compound 0.1 µM, first compound 0.00949 µM
[2] = second compound 0.1 µM, first compound 0.03 µM
[3] = second compound 0.1 µM, first compound 0.0949 µM
[4] = second compound 0.1 µM, first compound 0.3 µM
[5] = second compound 0.316 µM, first compound 0.00949 µM
[6] = second compound 0.316 µM, first compound 0.03 µM
[7] = second compound 0.316 µM, first compound 0.0949 µM
[8] = second compound 0.316 µM, first compound 0.3 µM
[9] = second compound 1 µM, first compound 0.00949 µM
[10] = second compound 1 µM, first compound 0.03 µM
[11] = second compound 1 µM, first compound 0.0949 µM
[12] = second compound 1 µM, first compound 0.3 µM
[13] = second compound 3.16 µM, first compound 0.00949 µM
[14] = second compound 3.16 µM, first compound 0.03 µM
[15] = second compound 3.16 µM, first compound 0.0949 µM
[16] = second compound 3.16 µM, first compound 0.3 µM
[17] = second compound 10 µM, first compound 0.00949 µM
[18] = second compound 10 µM, first compound 0.03 µM
[19] = second compound 10 µM, first compound 0.0949 µM
[20] = second compound 10 µM, first compound 0.3 µM

CC1COCCN1c1cc(C2(S(C)(=N)=O)CC2)nc(-c2ccnc3[nH]ccc23)n1 (stereo not given) + CC(CO)NC(=O)c1cc(-c2ccc(Cl)cc2)nn(-c2cnn(C)c2)c1=O
IC50 (second compound 0.1 µM): > 10000 nM | IC50 (second compound 0.316 µM): > 10000 nM | IC50 (second compound 1 µM): > 10000 nM | IC50 (second compound 3.16 µM): > 10000 nM | IC50 (second compound 10 µM): > 10000 nM | viability, T/C (second compound 0.1 µM, first compound 0.0316 µM): 112% | viability, T/C (second compound 0.1 µM, first compound 0.1 µM): 117% | viability, T/C (second compound 0.1 µM, first compound 0.316 µM): 108% | viability, T/C (second compound 0.1 µM, first compound 1 µM): 107% | viability, T/C (second compound 0.1 µM, first compound 3.16 µM): 90.5% | viability, T/C (second compound 0.1 µM, first compound 10 µM): 60.3% | viability, T/C (second compound 0.316 µM, first compound 0.0316 µM): 113% | viability, T/C (second compound 0.316 µM, first compound 0.1 µM): 122% | viability, T/C (second compound 0.316 µM, first compound 0.316 µM): 127% | viability, T/C (second compound 0.316 µM, first compound 1 µM): 100% | viability, T/C (second compound 0.316 µM, first compound 3.16 µM): 85.2% | viability, T/C (second compound 0.316 µM, first compound 10 µM): 61.3% | viability, T/C (second compound 1 µM, first compound 0.0316 µM): 111% | viability, T/C (second compound 1 µM, first compound 0.1 µM): 134% | viability, T/C (second compound 1 µM, first compound 0.316 µM): 112% | viability, T/C (second compound 1 µM, first compound 1 µM): 111% | viability, T/C (second compound 1 µM, first compound 3.16 µM): 94.7% | viability, T/C (second compound 1 µM, first compound 10 µM): 66% | viability, T/C (second compound 3.16 µM, first compound 0.0316 µM): 111% | viability, T/C (second compound 3.16 µM, first compound 0.1 µM): 114% | viability, T/C (second compound 3.16 µM, first compound 0.316 µM): 114% | viability, T/C (second compound 3.16 µM, first compound 1 µM): 111% | viability, T/C (second compound 3.16 µM, first compound 3.16 µM): 91.7% | viability, T/C (second compound 3.16 µM, first compound 10 µM): 59.5% | viability, T/C (second compound 10 µM, first compound 0.0316 µM): 105% | viability, T/C (second compound 10 µM, first compound 0.1 µM): 121% | viability, T/C (second compound 10 µM, first compound 0.316 µM): 122% | viability, T/C (second compound 10 µM, first compound 1 µM): 116% | viability, T/C (second compound 10 µM, first compound 3.16 µM): 90.9% | viability, T/C (second compound 10 µM, first compound 10 µM): 58.8%

Nc1ncn(C2CC(O)C(CO)S2)c(=O)n1 (stereo not given) + CC(CO)NC(=O)c1cc(-c2ccc(Cl)cc2)nn(-c2cnn(C)c2)c1=O
IC50 (second compound 0.1 µM): > 300 nM | IC50 (second compound 0.316 µM): > 300 nM | IC50 (second compound 1 µM): > 300 nM | IC50 (second compound 3.16 µM): > 300 nM | IC50 (second compound 10 µM): > 300 nM | viability, T/C (second compound 0.1 µM, first compound 0.000949 µM): 115% | viability, T/C (second compound 0.1 µM, first compound 0.003 µM): 124% | viability, T/C [1]: 117% | viability, T/C [2]: 119% | viability, T/C [3]: 115% | viability, T/C [4]: 98.6% | viability, T/C (second compound 0.316 µM, first compound 0.000949 µM): 118% | viability, T/C (second compound 0.316 µM, first compound 0.003 µM): 114% | viability, T/C [5]: 128% | viability, T/C [6]: 110% | viability, T/C [7]: 117% | viability, T/C [8]: 108% | viability, T/C (second compound 1 µM, first compound 0.000949 µM): 112% | viability, T/C (second compound 1 µM, first compound 0.003 µM): 110% | viability, T/C [9]: 121% | viability, T/C [10]: 121% | viability, T/C [11]: 122% | viability, T/C [12]: 118% | viability, T/C (second compound 3.16 µM, first compound 0.000949 µM): 123% | viability, T/C (second compound 3.16 µM, first compound 0.003 µM): 122% | viability, T/C [13]: 116% | viability, T/C [14]: 116% | viability, T/C [15]: 105% | viability, T/C [16]: 112% | viability, T/C (second compound 10 µM, first compound 0.000949 µM): 113% | viability, T/C (second compound 10 µM, first compound 0.003 µM): 104% | viability, T/C [17]: 112% | viability, T/C [18]: 113% | viability, T/C [19]: 110% | viability, T/C [20]: 104%

O=C(C=Cn1cnc(-c2cc(C(F)(F)F)cc(C(F)(F)F)c2)n1)NNc1cnccn1 + CC(CO)NC(=O)c1cc(-c2ccc(Cl)cc2)nn(-c2cnn(C)c2)c1=O
IC50 (second compound 0.1 µM): 305 nM | IC50 (second compound 0.316 µM): 314 nM | IC50 (second compound 1 µM): 352 nM | IC50 (second compound 3.16 µM): 333 nM | IC50 (second compound 10 µM): 300 nM | viability, T/C [1]: 102% | viability, T/C [2]: 108% | viability, T/C [3]: 89.4% | viability, T/C [4]: 51.8% | viability, T/C (second compound 0.1 µM, first compound 0.949 µM): 19.2% | viability, T/C (second compound 0.1 µM, first compound 3 µM): 17.2% | viability, T/C [5]: 109% | viability, T/C [6]: 103% | viability, T/C [7]: 87.7% | viability, T/C [8]: 53.3% | viability, T/C (second compound 0.316 µM, first compound 0.949 µM): 19.6% | viability, T/C (second compound 0.316 µM, first compound 3 µM): 18.4% | viability, T/C [9]: 107% | viability, T/C [10]: 102% | viability, T/C [11]: 94.8% | viability, T/C [12]: 55.1% | viability, T/C (second compound 1 µM, first compound 0.949 µM): 20.8% | viability, T/C (second compound 1 µM, first compound 3 µM): 18.6% | viability, T/C [13]: 108% | viability, T/C [14]: 100% | viability, T/C [15]: 91.7% | viability, T/C [16]: 51.5% | viability, T/C (second compound 3.16 µM, first compound 0.949 µM): 28.2% | viability, T/C (second compound 3.16 µM, first compound 3 µM): 21.9% | viability, T/C [17]: 97% | viability, T/C [18]: 102% | viability, T/C [19]: 100% | viability, T/C [20]: 50% | viability, T/C (second compound 10 µM, first compound 0.949 µM): 22.6% | viability, T/C (second compound 10 µM, first compound 3 µM): 24.4%
